Results taken from patent US20070099941A1, “N-arylalkyl-thienopyrimidin-4-amines and analogs as activators of caspases and inducers of apoptosis and the use thereof” (Cytovia, Inc., priority 2005, published 2007).

What was measured:
Type in all cases: cell-based
[1] = tested on: human breast cancer cell line T-47D; assay: Caspase cascade activation assay in T-47D cells; settings: T47D, 24 h or 48 h incubation, read-out: Caspase Activation Potency EC50 T-47D
Procedure: (§1) Human breast cancer cell lines T-47D and human lung cancer cell line H1299 were grown according to media component mixtures designated by American Type Culture Collection+10% FCS (Invitrogen Corporation), in a 5% CO2-95% humidity incubator at 37° C. T-47D and H1299 cells were maintained at a cell density between 50 and 80% confluency at a cell density of 0.1 to 0.6×10^6 cells/mL. Cells were harvested at 600×g and resuspended at 0.65×10^6 cells/mL into appropriate media+10% FCS. An aliquot of 22.5 μL of cells was added to a well of a 384-well microtiter plate containing 2.5 μL of a 10% DMSO in RPMI-1640 media solution containing 0.16 to 100 μM of N-(3,4-methylenedioxybenzyl)-6-phenylthieno[3,2-d]pyrimidin-4-amine or other test compound (0.016 to 10 μM final). An aliquot of 22.5 μL of cells was added to a well of a 384-well microtiter plate containing 2.5 μL of a 10% DMSO in RPMI-1640 media solution without test compound as the control sample. The samples were mixed by agitation and then incubated at 37° C. for 24 h or 48 h in a 5% CO2-95% humidity incubator. After incubation, the samples were removed from the incubator and 25 μL of a solution containing 14 μM of N-(Ac-DEVD)-N′-ethoxycarbonyl-R110 (SEQ ID No.:1) fluorogenic substrate (Cytovia, Inc.; WO99/18856), 20% sucrose (Sigma), 20 mM DTT (Sigma), 200 mM NaCl (Sigma), 40 mM Na PIPES buffer pH 7.2 (Sigma), and 500 μg/mL lysolecithin (Calbiochem) was added. The samples were mixed by agitation and incubated at room temperature. Using a fluorescent plate reader (Model SPECTRAfluor Plus, Tecan), an initial reading (T=0) was made approximately 1-2 min after addition of the substrate solution, employing excitation at 485 nm and emission at 530 nm, to determine the background fluorescence of the control sample. After the 3 h incubation, the samples were read for fluorescence as above (T=3 h).
(§2) The Relative Florescence Unit values (RFU) were used to calculate the sample readings as follows: RFU(T=3h)−Control RFU(T=0)=Net RFU(T=3h)
(§3) The activity of caspase cascade activation was determined by the ratio of the net RFU value for N-(3,4-methylenedioxybenzyl)-6-phenylthieno[3,2-d]pyrimidin-4-amine (Example A) or other test compound to that of control samples. The EC50 (nM) was determined by a sigmoidal dose-response calculation (Prism 3.0, GraphPad Software Inc.).

[2] = tested on: human lung cancer cell line H1299; assay: Caspase cascade activation assay in H1299 cells; settings: NCI-H1299, 24 h or 48 h incubation, read-out: Caspase Activation Potency EC50 H1299
Procedure: as §1, §2, §3

[3] = tested on: human colon carcinoma cell line HCT116; assay: Caspase cascade activation assay in HCT116 cells; settings: HCT-116, 48 h assay, read-out: Caspase Activation Potency EC50 HCT116
[4] = tested on: human hepatocellular carcinoma cell line SNU398; assay: Caspase cascade activation assay in SNU398 cells; settings: SNU-398, 48 h assay, read-out: Caspase Activation Potency EC50 SNU398
[5] = tested on: human lymphoma cell line Raji; assay: Caspase cascade activation assay in Raji cells; settings: 48 h assay, read-out: Caspase Activation Potency EC50 Raji
[6] = tested on: human B cell lymphoblastoid cell line Ramos; assay: Caspase cascade activation assay in Ramos cells; settings: 48 h assay, read-out: Caspase Activation Potency EC50 Ramos
[7] = tested on: human Burkitt's lymphoma cell line Namalwa; assay: Caspase cascade activation assay in Namalwa cells; settings: Burkitts lymphoma cell, 48 h assay, read-out: Caspase Activation Potency EC50 Namalwa
[8] = tested on: human breast cancer cell line T-47D; assay: Inhibition of cell proliferation (GI50, CellTiter-Glo) in T-47D cells; settings: T47D cells, 48 h, dose for 50% inhibition of cell proliferation
Procedure: (§4) Human breast cancer cell lines T-47D, MX-1 and MDAMB435, human colon cancer cell line HT29, and human lung cancer cell line H1299 were grown and harvested as in Example 26. An aliquot of […] of cells (4.4×10^4 cells/mL) was added to a well of a 96-well microtiter plate containing 5 μL of a 10% DMSO in RPMI-1640 media solution containing 10 nM to 100 μM of N-(3,4-methylenedioxybenzyl)-6-phenylthieno[3,2-d]pyrimidin-4-amine (1 nM to 10 μM final). An aliquot of 45 μL of cells was added to a well of a 96-well microtiter plate containing 5 μL of a 10% DMSO in RPMI-1640 media solution without compound as the control sample for maximal cell proliferation (LMax). The samples were mixed by agitation and then incubated at 37° C. for 48 h in a 5% CO2-95% humidity incubator. After incubation, the samples were removed from the incubator and 25 μL of CellTiter-Glo™ reagent (Promega) was added. The samples were mixed by agitation and incubated at room temperature for 10-15 min. Plates were then read using a luminescent plate reader (Model SPECTRAfluor Plus, Tecan) to give Ltest values.
(§5) Baseline for GI50 (dose for 50% inhibition of cell proliferation) of initial cell numbers was determined by adding an aliquot of 45 μL of cells or 45 μL of media, respectively, to wells of a 96-well microtiter plate containing 5 μL of a 10% DMSO in RPMI-1640 media solution. The samples were mixed by agitation and then incubated at 37° C. for 0.5 h in a 5% CO2-95% humidity incubator. After incubation, the samples were removed from the incubator and 25 μL of CellTiter-Glo™ reagent (Promega) was added. The samples were mixed by agitation and incubated at 37° C. for 10-15 min at room temperature in a 5% CO2-95% humidity incubator. Fluorescence was read as above, (Lstart) defining luminescence for initial cell number used as baseline in GI50 determinations.
(§6) GI50 (dose for 50% inhibition of cell proliferation) is the concentration where [(LTest−Lstart)/(LMax−Lstart)]=0.5.

[9] = tested on: human breast cancer cell line MX-1; assay: Inhibition of cell proliferation (GI50, CellTiter-Glo) in MX-1 cells; settings: MX1 cells, 48 h, dose for 50% inhibition of cell proliferation
Procedure: as §4, §5, §6

[10] = tested on: human breast cancer cell line MDAMB435; assay: Inhibition of cell proliferation (GI50, CellTiter-Glo) in MDAMB435 cells; settings: MDA-MB-435, 48 h, dose for 50% inhibition of cell proliferation
Procedure: as §4, §5, §6

[11] = tested on: human lung cancer cell line H1299; assay: Inhibition of cell proliferation (GI50, CellTiter-Glo) in H1299 cells; settings: NCI-H1299, 48 h, dose for 50% inhibition of cell proliferation
Procedure: as §4, §5, §6

[12] = tested on: human colon cancer cell line HT29; assay: Inhibition of cell proliferation (GI50, CellTiter-Glo) in HT29 cells; settings: HT-29, 48 h, dose for 50% inhibition of cell proliferation
Procedure: as §4, §5, §6

EC50 [1] | EC50 [2] | EC50 [3] | EC50 [4] | EC50 [5] | EC50 [6] | EC50 [7] | GI50 [8] | GI50 [9] | GI50 [10] | GI50 [11] | GI50 [12] | Compound
903 nM | 506 nM | 737 nM | 738 nM | 1130 nM | 624 nM | 633 nM | 600 nM | 600 nM | 129 nM | 600 nM | 600 nM | c1ccc(-c2cc3ncnc(NCc4ccc5c(c4)OCO5)c3s2)cc1 [Example A, N-(3,4-methylenedioxybenzyl)-6-phenylthieno[3,2-d]pyrimidin-4-amine]
563 nM | 1600 nM | 2530 nM | 1450 nM | 2760 nM | 1830 nM | 1350 nM | 1290 nM | 173 nM | 155 nM | 1810 nM | 5240 nM | c1cncc(-c2cc3ncnc(NCc4ccc5c(c4)OCO5)c3s2)c1 [Example 5, N-(3,4-Methylenedioxybenzyl)-6-(pyridin-3-yl)thieno[3,2-d]pyrimidin-4-amine]
1560 nM | 5090 nM | – | – | – | – | – | 2070 nM | 2500 nM | 997 nM | 1040 nM | 2500 nM | Ic1cc2ncnc(NCc3ccc4c(c3)OCO4)c2s1 [Example 3, N-(3,4-Methylenedioxybenzyl)-6-iodo-thieno[3,2-d]pyrimidin-4-amine]
